How the values were obtained:
[1] = tested on: human ATM; details: ref [5] Howes, A. C., Perisic, O. & Williams, R. L. Sci. Adv. 9, eadi8291 (2023); cited from earlier work
Description: Based on a radiolabeled ATP-based kinase assay, which is the “gold standard” for the quantification of protein kinase activity, we managed to achieve a 30-fold increase in ATM/Tel1 activity (Fig. 1a; Supplementary Fig. S3). This level of activati ...

[2] = tested on: ATM/Tel1; experiment: Endogenous activation of ATM/Tel1 in cultured yeast cells; type: cell-based, Schizosaccharomyces pombe; details: 0.05% MMS added at OD600 ≈ 4, cells collected 60 min later
Experimental: (§1) Purification of Yeast ATM/Tel1
(§2) S. pombe stain CC5060 (h–leu1-32 ura4- D18 kanMX6:nmt1:TAP-tel1)[1] was grown in YPD medium to the stationary phase. 0.05% MMS(MACKLIN)was added at OD600 ≈ 4 and c ells were collected 60 min later. About 100 g cells were harvested, washed, and resuspended in extraction buffer (50 mM HEPES [pH 7.6], 300 mM ammonium sulfate, 0.5 mM EDTA, 5 mM β-ME, 10% (v/v) glycerol, 0.01% (v/v) NP-40 and protease inhibitors), and a whole-cell extraction was prepared as previously described. This whole -cell extract was selectively precipitated in 30-55% ammonium sulfate and resuspended using binding buffer (50 mM HEPES [pH 7.6], 1 mM EDTA, 10 mM ZnCl2, 5 mM β- ME, and protease inhibitors). […] The ATM/Tel1 elution was flash- frozen in liquid nitrogen, and analyzed by SDS-PAGE and EM examination.
(§3) Expression and Purification of full-length CHK2, MRN (Mre11, Rad50-core, Nbs1) The codon-optimized gene fragments for human full- length CHK2, yeast Mre11, Rad50-core (lacking the coiled-coil motif) were cloned into the pET22b vector with a C-terminal 6× His tag and Nbs1 were cloned into the pET22b vector with a C-terminal 6× His tag and a GST tag, and transformed into E. coli BL21(DE3). […] The eluted CHK2 and MRN proteins were flash-frozen in liquid nitrogen and analyzed by SDS-PAGE and EM. […]

[3] = biological target: T1, basal ATM/Tel1 (Schizosaccharomyces pombe, UniProt O74630); experiment: Surface plasmon resonance, CHK2 immobilized, basal ATM/Tel1; type: binding; details: 20 °C, experiment independently repeated three times
T1 construct: we endogenously purified basal; TAP (N, cleaved yes); made in house; host or cells: Schizosaccharomyces pombe strain CC5060 (TAP-tel1 under the nmt1 promoter)
T1 sequence (O74630 whole entry): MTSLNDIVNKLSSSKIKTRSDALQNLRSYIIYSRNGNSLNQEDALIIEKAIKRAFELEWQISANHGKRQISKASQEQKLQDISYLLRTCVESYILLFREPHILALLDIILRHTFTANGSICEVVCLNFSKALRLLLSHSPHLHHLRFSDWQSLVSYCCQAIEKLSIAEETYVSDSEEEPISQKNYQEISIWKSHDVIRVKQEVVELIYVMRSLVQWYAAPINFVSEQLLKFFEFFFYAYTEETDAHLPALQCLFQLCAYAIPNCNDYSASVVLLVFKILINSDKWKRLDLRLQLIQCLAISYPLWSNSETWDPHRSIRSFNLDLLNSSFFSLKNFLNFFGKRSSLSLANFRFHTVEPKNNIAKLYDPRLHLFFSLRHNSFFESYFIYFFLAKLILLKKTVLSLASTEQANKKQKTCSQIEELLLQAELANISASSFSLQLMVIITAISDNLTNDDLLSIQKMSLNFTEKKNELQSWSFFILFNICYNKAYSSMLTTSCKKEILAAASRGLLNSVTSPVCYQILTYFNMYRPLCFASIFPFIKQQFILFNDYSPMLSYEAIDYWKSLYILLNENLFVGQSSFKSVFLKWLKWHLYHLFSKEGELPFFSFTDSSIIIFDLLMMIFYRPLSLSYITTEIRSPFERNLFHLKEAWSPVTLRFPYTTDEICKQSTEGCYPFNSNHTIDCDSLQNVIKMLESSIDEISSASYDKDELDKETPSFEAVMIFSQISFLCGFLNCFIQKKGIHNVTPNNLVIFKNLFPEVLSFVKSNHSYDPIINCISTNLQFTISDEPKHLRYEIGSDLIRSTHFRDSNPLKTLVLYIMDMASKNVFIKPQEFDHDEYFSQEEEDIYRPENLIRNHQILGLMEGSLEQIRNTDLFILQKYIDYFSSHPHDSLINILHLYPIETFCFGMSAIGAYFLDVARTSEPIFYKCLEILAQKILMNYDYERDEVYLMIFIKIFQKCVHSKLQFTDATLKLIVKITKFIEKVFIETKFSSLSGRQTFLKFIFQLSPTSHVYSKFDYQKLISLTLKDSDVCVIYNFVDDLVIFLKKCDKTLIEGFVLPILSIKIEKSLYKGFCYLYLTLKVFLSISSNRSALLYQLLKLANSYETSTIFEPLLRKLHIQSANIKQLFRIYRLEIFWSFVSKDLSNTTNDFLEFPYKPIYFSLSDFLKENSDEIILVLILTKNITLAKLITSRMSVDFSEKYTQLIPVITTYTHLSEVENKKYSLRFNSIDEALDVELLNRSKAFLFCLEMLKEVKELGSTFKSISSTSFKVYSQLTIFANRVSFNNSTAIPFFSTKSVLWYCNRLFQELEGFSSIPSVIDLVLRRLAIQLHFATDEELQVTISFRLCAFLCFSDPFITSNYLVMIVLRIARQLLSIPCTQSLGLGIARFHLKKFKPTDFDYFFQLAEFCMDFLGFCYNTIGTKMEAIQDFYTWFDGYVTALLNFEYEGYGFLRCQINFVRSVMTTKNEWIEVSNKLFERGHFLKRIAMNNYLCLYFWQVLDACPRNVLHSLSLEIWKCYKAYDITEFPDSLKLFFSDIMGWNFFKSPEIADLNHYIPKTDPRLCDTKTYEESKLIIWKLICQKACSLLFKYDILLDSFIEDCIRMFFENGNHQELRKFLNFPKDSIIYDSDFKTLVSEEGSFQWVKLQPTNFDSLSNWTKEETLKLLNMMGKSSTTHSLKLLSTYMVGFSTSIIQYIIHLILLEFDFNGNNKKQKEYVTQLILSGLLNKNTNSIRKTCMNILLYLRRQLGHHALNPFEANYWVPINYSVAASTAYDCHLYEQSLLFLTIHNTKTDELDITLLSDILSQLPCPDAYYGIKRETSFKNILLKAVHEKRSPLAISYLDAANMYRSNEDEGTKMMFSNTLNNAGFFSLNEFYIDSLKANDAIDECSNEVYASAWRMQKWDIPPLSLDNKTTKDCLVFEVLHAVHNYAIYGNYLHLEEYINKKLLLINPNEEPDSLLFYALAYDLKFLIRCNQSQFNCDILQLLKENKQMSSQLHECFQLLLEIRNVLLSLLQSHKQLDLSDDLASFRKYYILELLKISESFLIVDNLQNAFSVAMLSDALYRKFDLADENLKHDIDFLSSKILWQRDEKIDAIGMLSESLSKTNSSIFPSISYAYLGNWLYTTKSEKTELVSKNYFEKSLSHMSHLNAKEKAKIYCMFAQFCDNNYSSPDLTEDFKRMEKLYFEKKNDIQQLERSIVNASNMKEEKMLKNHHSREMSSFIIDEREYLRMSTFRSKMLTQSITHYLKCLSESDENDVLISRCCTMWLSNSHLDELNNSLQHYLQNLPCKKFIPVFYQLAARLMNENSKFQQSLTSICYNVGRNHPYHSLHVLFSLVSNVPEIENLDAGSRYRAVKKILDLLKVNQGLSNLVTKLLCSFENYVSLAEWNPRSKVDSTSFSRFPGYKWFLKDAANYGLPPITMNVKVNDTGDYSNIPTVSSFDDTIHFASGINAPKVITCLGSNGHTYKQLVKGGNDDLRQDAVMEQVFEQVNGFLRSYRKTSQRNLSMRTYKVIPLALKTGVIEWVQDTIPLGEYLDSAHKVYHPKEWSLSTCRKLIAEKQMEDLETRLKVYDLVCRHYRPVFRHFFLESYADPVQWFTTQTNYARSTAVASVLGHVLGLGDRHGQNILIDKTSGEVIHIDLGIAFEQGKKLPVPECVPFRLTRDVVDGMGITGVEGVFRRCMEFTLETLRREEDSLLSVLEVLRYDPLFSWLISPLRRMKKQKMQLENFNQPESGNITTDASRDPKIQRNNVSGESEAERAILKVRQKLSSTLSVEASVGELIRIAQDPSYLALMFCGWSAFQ
Experimental: as §1
as §2, with “described.” for “described. This whole -cell extract was selectively precipitated in 30-55% ammonium sulfate and resuspended using binding buffer (50 mM HEPES [pH 7.6], 1 mM EDTA, 10 mM ZnCl2, 5 mM β- ME, and protease inhibitors).”
as §3
(§4) to SDS- PAGE and analyzed by Western blot (WB) using pan- acetylated -Lysine (Rabbit monoclonal, Cat# 9441S, Cell Signaling Technology). and phospho-ATM/ATR substrate (pSQ/pTQ motif, Rabbit monoclonal, Cat# 6966, Cell Signaling Technology) antibodies. […]

[4] = biological target: T2, active ATM/Tel1 (Schizosaccharomyces pombe, UniProt O74630); experiment: Surface plasmon resonance, CHK2 immobilized, active ATM/Tel1; type: binding; details: 20 °C, experiment independently repeated three times
T2 construct: TAP (N, cleaved yes); made in house; host or cells: Schizosaccharomyces pombe strain CC5060 (TAP-tel1 under the nmt1 promoter), treated with 0.05% MMS
T2 sequence (O74630 whole entry): as above
Experimental: as §1
as §2, with “described.” for “described. This whole -cell extract was selectively precipitated in 30-55% ammonium sulfate and resuspended using binding buffer (50 mM HEPES [pH 7.6], 1 mM EDTA, 10 mM ZnCl2, 5 mM β- ME, and protease inhibitors).”
as §3, §4

[5] = tested on: active ATM/Tel1 dimer; experiment: Cryo-EM structure of active ATM/Tel1 with substrate peptide; type: binding, Schizosaccharomyces pombe; details: cryo-EM Structure 2, 3.6 Å; active ATM/Tel1 : 329 bp DNA : CHK2 peptide 1:20:200 with AMP-PNP, on ice 1 h
Experimental: The affinity chromatography sample of ATM/Tel1 was diluted to final concentrations of 0.05 mg/ml (50 mM HEPES [pH 7.6], 0.01% (v/v) NP- 40, 1 mM EDTA, 10 mM ZnCl 2, 5 mM β- ME, and protease inhibitors). Negative staining was used to evaluate the protein quality. In brief, 3 µl of freshly purified ATM/Tel1 was applied onto copper grids supported by a thin layer of glow - discharged carbon film (Zhongjingkeyi Technology Co., Ltd). After adsorption for 30 s, uranyl acetate (2% w/v) was used for negative staining at room temperature. The negatively stained grids were examined using FEI Talos L120C operated at 120 KeV. […]
The grids were imaged in a Titan Krios cryo-electron microscope (Thermo Fisher Scientific) operated at 300 keV at a magnification of 81,000 × (corresponding to a calibrated sampling of 1.07 Å per pixel). Movies were recorded by EPU with a Gatan K3 Summit direct electron detector, where each movie was composed of 32 individual frames with an exposure time of 3.8 s and a dose rate of 50 electrons per second per Å2. […]
Beam-induced sample motions were corrected using MotionCorr2[3] software, and contrast transfer function (CTF) parameters were estimated using CTFFIND4[4] software. […] All reported resolutions were calculated from gold standard refinement procedures with the FSC = 0.143 criterion implemented in cryoSPARC[5]. […]

In the case of `OO` [H2O2], the “level of activation of human ATM in vitro compared with the 30-fold activation of ATM/Tel1” value [1] is listed as “comparable”.

In the case of `COS(C)(=O)=O` [methylmethane sulfonate], the “activation of cellular ATM/Tel1 (in words)” value [2] was “endogenously activated the cellular ATM/Tel1”.

In the case of “LETVSTQELYSI [CHK2 peptide, 12-residue human CHK2 substrate peptide 63-74, custom-synthesized by Sangon, with an N-terminal NH2 and C-terminal COOH]”, the “reduction of affinity for basal ATM/Tel1 compared to the active state” value ([3]; SPR (Supplementary Fig. S7)) was “over 120 fold”, the “binding affinity for basal ATM/Tel1 (in words)” value ([3]; SPR (Supplementary Fig. S7b)) was “significantly lower affinity” and the “affinity for active ATM/Tel1 relative to full-length CHK2” value ([4]; SPR (Supplementary Fig. S7)) was “comparable to that of the full-length CHK2”. For the same compound, the “binding affinity for active ATM/Tel1 (in words)” value ([4]; SPR (Supplementary Fig. S7a)) was “increased affinity in the active state” and the “monomers of the active dimer that bind the substrate peptide” value [5] was “only Mono1, but not Mono2, can bind to the CHK2 peptide”.
